Where “and” joins values, the source holds several entries; their conditions need not be identical. Identical values can stand only once.
Key:
MIA rat model of OA = experiment: MIA trial 2 histopathology (same doses as dRS test); type: in vivo; design: key to Total joint score with matrix / Total joint score w/o matrix: sum of cartilage degeneration, osteophyte and bone scores (± matrix); settings: group mean
Description: Following functional testing in the first and second MIA trials, femurs were fixed in paraformaldehyde, processed, sectioned, stained with hematoxylin and eosin or Safranin O at Premier Laboratory (Longmont, CO, USA), and analyzed by a veterinary pathologist. For MIA trial 1, sections were evaluated for the percentage area of chondrocyte necrosis and/or proteolytic degeneration using a 5-point scale with 0 = none; 1 being <10 %; 2 = 10–30 %; 3 = 30–60 %; 4 = 60–90 %; and 5 being >90 %. Other characteristics of inflammation, proliferation, and integrity of the synovium, subchondral bone, and articular cartilage were scored as normal, minimal, mild, moderate, marked, or increased or decreased when severity was not graded. MIA trial 2 was measured similarly and then cross-checked according to the methods used for MIA trial 3 (see text below).
For MIA trial 3, joints were fixed and toluidine blue–stained sections of the rat knees were comprehensively analyzed from test and control subjects as detailed in Additional file 1. Briefly, a 5-point cartilage matrix score was derived based upon (1) approximate percentage of total loss of articular chondrocytes for each of four articular surfaces, (2) estimated proteoglycan loss (via Safranin O staining), and (3) loss of interstitial matrix. Chondrocyte necrosis and proteolytic degeneration of the femurs were scored on a 5-point scale as in trial 1. A femoral cartilage degeneration score and a three-zone sum of the tibial cartilage degeneration scores (mean of three levels) were also summed to create a total cartilage degeneration score. The mean osteophyte score for each joint was added to this value to create a total joint score with matrix. Other parameters assessed included synovial membrane inflammation and proliferation. Representative images from each group were also collected (see, e.g., Fig. 4 and Additional file 1: Fig. S55, Trial 3).
The histopathology for the first MIA trial was performed by Premier Laboratories (Dr. Michael Hawes, APS, Pathologist). Treatments were masked during the assessment. Chondrocyte necrosis and proteolytic degeneration of the femurs were scored on a 5 point scale with 0 = None; 1 = <10%; […]
proteoglycan content (safranin O staining), synovial membrane inflammation and proliferation, subchondral bone, and articular cartilage (as indicated in Supplementary methods). Characteristics within these categories were scored as normal, minimal, mild, moderate, marked, or +/- when severity was not graded. Slides from Trial 2 were further reviewed by Dr. Bendele using the analytical method described below for the MMT/MCLT model to confirm any conclusions.
For the histopathology of the MIA model in Trial 3, completed by Bolder BioPATH (and Dr.
Bendele), a tolouidine blue stained slide containing both halves of the joint was comprehensively analyzed from test and control subjects. Approximate % of total loss of articular chondrocytes, loss of proteoglycan and loss of collagenous matrix were determined for each articular surface (medial tibial plateau (MTP), lateral tibial plateau (LTP), medial femoral condyle (MFC), and lateral femoral condyle (LFC). Chondrocyte loss was quantified by estimating the area of cartilage in which there were no apparently viable chondrocytes and proteoglycan loss was quantified by estimating differences in intensity of toluidine blue matrix staining. Loss of interstitial matrix was an indication of disruption and diminished type II collagen. Based on the mean % loss for the four surfaces in these parameters, a five point matrix score was utilized with the subchondral bone resorption, subchondral bone sclerosis and osteophyte scores to achieve a total joint score.
(§1) Histopathology MMT/MCLT Model

MMT/MCLT rat model of OA = experiment: MMT/MCLT trial 2 histopathology (same doses); type: in vivo; design: key to Tibial cartilage degeneration score, 3-zone total: sum of three tibial zone scores (each on 5-point scale); key to Total joint score w/o femur / Total joint score: sum: cartilage degeneration scores + mean osteophyte score; settings: for Bone score / Depth ratio any matrix change, mean / Depth ratio any matrix change, zone 2 / Femoral cartilage degeneration score / Tibial cartilage degeneration score, 3-zone total / Tibial cartilage degeneration score, zone 1 / Tibial cartilage degeneration score, zone 2 / Tibial cartilage degeneration score, zone 3 / Tibial cartilage degeneration width, substantial (>50% thickness) / Tibial cartilage degeneration width, total / Tibial osteophyte measure / Tibial osteophyte score / Total joint score / Total joint score w/o femur: mean; for % decrease, bone score / % decrease, depth ratio mean / % decrease, femoral cartilage degeneration score / % decrease, osteophyte measure / % decrease, osteophyte score / % decrease, substantial degeneration width / % decrease, tibial score 3-zone total / % decrease, tibial score zone 1 / % decrease, tibial score zone 3 / % decrease, total degeneration width / % decrease, total joint score / % decrease, total joint score w/o femur / % decrease, depth ratio zone 2 / % decrease, tibial score zone 2: vs saline group
Excerpt: For MMT/MCLT rat knee joints, sections were cut in 200-μm steps; stained with toluidine blue (also with a right and left half per section); and similarly analyzed for cartilage degeneration, proteoglycan loss, collagen damage, and osteophyte formation. Results were averaged across the three sections for an overall semiquantitative score. Regional differences across the tibial plateau were taken into consideration by dividing each section into three zones delineated using an ocular micrometer (outside, middle, and inside). Scores were based on the percentage of area affected within the zone.
Cartilage degeneration in the tibia was scored on a 5-point scale as detailed in the Methods section of Additional file 1. The total extent of degeneration of the tibial plateau was measured (in micrometers) and included an analysis of cell loss, proteoglycan loss, and collagen damage. Significant cartilage degeneration reflecting any degeneration extending through more than 50 % of the cartilage thickness was also measured. Collagen damage across the medial tibial plateau (the most severely affected section of the two halves) was also quantified.
Osteophytes and femoral cartilage degeneration were analyzed as detailed in Additional file 1. Scoring of the osteophytes and categorization into small, medium, and large was performed using an ocular micrometer. The actual osteophyte measurement (tidemark to farthest distance point extending toward the synovium) was also recorded. The femoral cartilage degeneration score and the three-zone sum of the tibial cartilage degeneration scores (mean of three levels) were summed to create a total cartilage degeneration score. The mean osteophyte score for each joint was added to this value to create a total joint score. […]
as §1

[1] = tacrolimus 0.3 mg/kg, other drugs single dose
[2] = tacrolimus 30 ng i.a., clonidine 100 μg/kg s.c.
[3] = i.a., tacrolimus 15 ng, curcumin 30 μg

Compound: C=CC[C@@H]1/C=C(\C)C[C@H](C)C[C@H](OC)[C@H]2O[C@@](O)(C(=O)C(=O)N3CCCC[C@H]3C(=O)O[C@H](/C(C)=C/[C@@H]3CC[C@@H](O)[C@H](OC)C3)[C@H](C)[C@@H](O)CC1=O)[C@H](C)C[C@@H]2OC [Tacrolimus]
- Bone resorption score (MIA rat model of OA; [1]): 4.3
- Bone resorption, percent of surface, LFC (MIA rat model of OA; [1]): 88%
- Bone resorption, percent of surface, LTP (MIA rat model of OA; [1]): 88%
- Bone resorption, percent of surface, MFC (MIA rat model of OA; [1]): 70%
- Bone resorption, percent of surface, MTP (MIA rat model of OA; [1]): 94%
- Bone resorption, percent of surface, mean (MIA rat model of OA; [1]): 85%
- Cartilage matrix damage score (MIA rat model of OA; [1]): 3.8 and 3.8 ± 0.6
- Mean of all cartilage loss (MIA rat model of OA; [1]): 69%
- Osteophyte measure (MIA rat model of OA; [1]): 700.0 µm
- Osteophyte score (MIA rat model of OA; [1]): 3.5
- Subchondral bone sclerosis score (MIA rat model of OA; [1]): 0.0
- Total joint score w/o matrix (MIA rat model of OA; [1]): 7.8
- Total joint score with matrix (MIA rat model of OA; [1]): 11.5 and 11.5 ± 1.7
- Bone resorption score (MIA rat model of OA; tacrolimus 0.6 mg/kg i.p.): 3.8
- Bone resorption, percent of surface, LFC (MIA rat model of OA; tacrolimus 0.6 mg/kg i.p.): 80%
- Bone resorption, percent of surface, LTP (MIA rat model of OA; tacrolimus 0.6 mg/kg i.p.): 70%
- Bone resorption, percent of surface, MFC (MIA rat model of OA; tacrolimus 0.6 mg/kg i.p.): 63%
- Bone resorption, percent of surface, MTP (MIA rat model of OA; tacrolimus 0.6 mg/kg i.p.): 68%
- Bone resorption, percent of surface, mean (MIA rat model of OA; tacrolimus 0.6 mg/kg i.p.): 70%
- Cartilage matrix damage score (MIA rat model of OA; tacrolimus 0.6 mg/kg i.p.): 3.8 and 3.8 ± 0.6
- Mean of all cartilage loss (MIA rat model of OA; tacrolimus 0.6 mg/kg i.p.): 62%
- Osteophyte measure (MIA rat model of OA; tacrolimus 0.6 mg/kg i.p.): 550.0 µm
- Osteophyte score (MIA rat model of OA; tacrolimus 0.6 mg/kg i.p.): 2.8
- Subchondral bone sclerosis score (MIA rat model of OA; tacrolimus 0.6 mg/kg i.p.): 0.0
- Total joint score w/o matrix (MIA rat model of OA; tacrolimus 0.6 mg/kg i.p.): 6.5
- Total joint score with matrix (MIA rat model of OA; tacrolimus 0.6 mg/kg i.p.): 10.3 and 10.3 ± 2.1
- Bone score (MMT/MCLT rat model of OA; i.a., tacrolimus 15 ng): 2.60
- Depth ratio any matrix change, mean (MMT/MCLT rat model of OA; i.a., tacrolimus 15 ng): 0.25
- Depth ratio any matrix change, zone 2 (MMT/MCLT rat model of OA; i.a., tacrolimus 15 ng): 0.06
- Femoral cartilage degeneration score (MMT/MCLT rat model of OA; i.a., tacrolimus 15 ng): 0.87 and 0.87 ± 0.36
- Tibial cartilage degeneration score, 3-zone total (MMT/MCLT rat model of OA; i.a., tacrolimus 15 ng): 4.43
- Tibial cartilage degeneration score, zone 1 (MMT/MCLT rat model of OA; i.a., tacrolimus 15 ng): 3.37
- Tibial cartilage degeneration score, zone 2 (MMT/MCLT rat model of OA; i.a., tacrolimus 15 ng): 1.07
- Tibial cartilage degeneration score, zone 3 (MMT/MCLT rat model of OA; i.a., tacrolimus 15 ng): 0.00
- Tibial cartilage degeneration width, substantial (>50% thickness) (MMT/MCLT rat model of OA; i.a., tacrolimus 15 ng): 536.67 µm
- Tibial cartilage degeneration width, total (MMT/MCLT rat model of OA; i.a., tacrolimus 15 ng): 1060.00 µm
- Tibial osteophyte measure (MMT/MCLT rat model of OA; i.a., tacrolimus 15 ng): 446.67 µm
- Tibial osteophyte score (MMT/MCLT rat model of OA; i.a., tacrolimus 15 ng): 3.30
- Total joint score (MMT/MCLT rat model of OA; i.a., tacrolimus 15 ng): 8.60 and 8.60 ± 0.63
- Total joint score w/o femur (MMT/MCLT rat model of OA; i.a., tacrolimus 15 ng): 7.73
- Bone score (MMT/MCLT rat model of OA; [2]): 2.60
- Depth ratio any matrix change, mean (MMT/MCLT rat model of OA; [2]): 0.28
- Depth ratio any matrix change, zone 2 (MMT/MCLT rat model of OA; [2]): 0.08
- Femoral cartilage degeneration score (MMT/MCLT rat model of OA; [2]): 0.80 and 0.8 ± 0.19
- Tibial cartilage degeneration score, 3-zone total (MMT/MCLT rat model of OA; [2]): 4.73
- Tibial cartilage degeneration score, zone 1 (MMT/MCLT rat model of OA; [2]): 3.50
- Tibial cartilage degeneration score, zone 2 (MMT/MCLT rat model of OA; [2]): 1.20
- Tibial cartilage degeneration score, zone 3 (MMT/MCLT rat model of OA; [2]): 0.03
- Tibial cartilage degeneration width, substantial (>50% thickness) (MMT/MCLT rat model of OA; [2]): 576.67 µm
- Tibial cartilage degeneration width, total (MMT/MCLT rat model of OA; [2]): 1090.00 µm
- Tibial osteophyte measure (MMT/MCLT rat model of OA; [2]): 457.33 µm
- Tibial osteophyte score (MMT/MCLT rat model of OA; [2]): 3.37
- Total joint score (MMT/MCLT rat model of OA; [2]): 8.90 and 8.90 ± 0.66
- Total joint score w/o femur (MMT/MCLT rat model of OA; [2]): 8.10
- % decrease, width of severe collagen degeneration (MMT/MCLT rat model of OA; tacrolimus 15 ng i.a.): 86%
- % decrease, width of severe collagen degeneration (MMT/MCLT rat model of OA; tacrolimus 30 ng i.a.): 87%
- % decrease, bone score (MMT/MCLT rat model of OA; i.a., tacrolimus 15 ng): 19%
- % decrease, depth ratio mean (MMT/MCLT rat model of OA; i.a., tacrolimus 15 ng): 23%
- % decrease, femoral cartilage degeneration score (MMT/MCLT rat model of OA; i.a., tacrolimus 15 ng): 19%
- % decrease, osteophyte measure (MMT/MCLT rat model of OA; i.a., tacrolimus 15 ng): 5%
- % decrease, osteophyte score (MMT/MCLT rat model of OA; i.a., tacrolimus 15 ng): 7%
- % decrease, substantial degeneration width (MMT/MCLT rat model of OA; i.a., tacrolimus 15 ng): 17%
- % decrease, tibial score 3-zone total (MMT/MCLT rat model of OA; i.a., tacrolimus 15 ng): 21%
- % decrease, tibial score zone 1 (MMT/MCLT rat model of OA; i.a., tacrolimus 15 ng): 10%
- % decrease, tibial score zone 3 (MMT/MCLT rat model of OA; i.a., tacrolimus 15 ng): 100%
- % decrease, total degeneration width (MMT/MCLT rat model of OA; i.a., tacrolimus 15 ng): 12%
- % decrease, total joint score (MMT/MCLT rat model of OA; i.a., tacrolimus 15 ng): 16%
- % decrease, total joint score w/o femur (MMT/MCLT rat model of OA; i.a., tacrolimus 15 ng): 16%
- % decrease, depth ratio zone 2 (MMT/MCLT rat model of OA; [3]): 59%
- % decrease, tibial score zone 2 (MMT/MCLT rat model of OA; [3]): 42%
- % decrease, bone score (MMT/MCLT rat model of OA; tacrolimus 30 ng i.a.): 19%
- % decrease, depth ratio mean (MMT/MCLT rat model of OA; tacrolimus 30 ng i.a.): 15%
- % decrease, depth ratio zone 2 (MMT/MCLT rat model of OA; tacrolimus 30 ng i.a.): 50%
- % decrease, femoral cartilage degeneration score (MMT/MCLT rat model of OA; tacrolimus 30 ng i.a.): 25%
- % decrease, osteophyte measure (MMT/MCLT rat model of OA; tacrolimus 30 ng i.a.): 3%
- % decrease, osteophyte score (MMT/MCLT rat model of OA; tacrolimus 30 ng i.a.): 6%
- % decrease, substantial degeneration width (MMT/MCLT rat model of OA; tacrolimus 30 ng i.a.): 11%
- % decrease, tibial score 3-zone total (MMT/MCLT rat model of OA; tacrolimus 30 ng i.a.): 15%
- % decrease, tibial score zone 1 (MMT/MCLT rat model of OA; tacrolimus 30 ng i.a.): 6%
- % decrease, tibial score zone 2 (MMT/MCLT rat model of OA; tacrolimus 30 ng i.a.): 35%
- % decrease, tibial score zone 3 (MMT/MCLT rat model of OA; tacrolimus 30 ng i.a.): 0%
- % decrease, total degeneration width (MMT/MCLT rat model of OA; tacrolimus 30 ng i.a.): 10%
- % decrease, total joint score (MMT/MCLT rat model of OA; tacrolimus 30 ng i.a.): 13%
- % decrease, total joint score w/o femur (MMT/MCLT rat model of OA; tacrolimus 30 ng i.a.): 12%

Source: PMC4721142, “Randomized controlled studies on the efficacy of antiarthritic agents in inhibiting cartilage degeneration and pain associated with progression of osteoarthritis in the rat” (Arthritis Research & Therapy, 2016)
